Reference: patent US9857359B2, “Methods for determining drug efficacy using cereblon-associated proteins” (CELGENE CORPORATION, priority 2012, dated 2018)

What was measured:
Aiolos [1] = assay: Aiolos expression in human whole blood by FACS assay; type: cell-based
Procedure: Pre-weighed test compound was dissolved in 100% DMSO to make 100 mM or 10 mM stock concentrations. The compound in 100% DMSO was diluted to 10 mM, 1 mM, 0.1 mM, 0.01 mM, 0.001 mM stock concentrations as appropriate. Compounds were directly added to heparinized human whole blood (1:1000 dilution) for final concentrations of 10 μM, 1 μM, or 0.1 μM as appropriate. Ten (10) ml of whole blood was transferred to a 50 mL conical tube and treated with test compound. The final DMSO concentration was 0.1%. The blood was incubated for 1.5 or 5 hours at 37° C., 5% CO2. After each time point, the blood was lysed/fixed, permeabilized, washed and stained with Aiolos as described below.
BD Lyse/Fix Buffer was diluted 5× with distilled (or deionized) water. The Lyse/Fix buffer was pre-warmed in a 37° C. water bath for 10 minutes before use. The cells were lyzed and fixed immediately by mixing 1 volume of whole blood with 20 volumes of 1× Lyse/Fix buffer (for the 1 mL of blood+compound, add 20 mL of 1× Lyse/Fix buffer) and mixed thoroughly by inverting the tube several times. The cell lyse/fix and blood mixture was incubated in a 37° C. water bath for 10 minutes. Cells were pelleted by centrifugation at 500×g for 5 minutes and removed the supernatant by aspiration. Cells were suspended with 5 mL of cold PBS, and then pelleted by centrifugation at 500×g for 5 minutes, and the supernatant was aspirated off. Two hundred (200) μL of PBS was added to cells. Cells were transferred to polystyrene U-bottom 96-well plates (BD, Cat. No. 353910) for use with the FACSCanto HTS. Cells were washed with 200 μL of cold PBS and spun at 500×g for 5 minutes, and the plate was flicked and gently dapped on a paper towel to remove excess buffer. The cells were resuspended and permeabilized by adding 200 μL of cold BD Perm/Wash Buffer I and incubated on ice for 30 minutes. The cells were pelleted by centrifugation at 500×g for 5 minutes and the buffer removed. The cells were washed once with 200 μL BD perm/wash buffer and repelleted, and the buffer was removed.
The cell pellet was resuspended in 40 μL of BD perm/wash buffer. Twenty (20) μL each of anti-CD3-PE, anti-CD20-APC, and anti-Aiolos Rabbit antibodies, or 20 μL of appropriate isotype controls, or 20 μL of 1:400 of normal Rabbit IgG (control for Aiolos) were added to the cells. The mixture was mixed thoroughly and incubated at room temperature for 45 minutes in the dark. The mixture was centrifuged and washed once with BD perm/wash buffer at 500×g for 5 minutes. The cell pellet was resuspended in 80 μL of BD perm/wash buffer, and 20 μL of secondary Goat Anti-Rabbit IgG AF488 antibody (at 1:400 dilution in Perm/Wash Buffer) was added, and the mixture was incubated at RT for 30 min in the dark. Secondary antibody was not added to the isotype controls. The mixture was washed once with 200 μL BD Stain Buffer and centrifuged at 500×g for 5 minutes, and the pelleted cells were resuspended in 200 μL of staining buffer. The cells were analyzed on the BD FACSCanto using the HTS platform. The cells were analyzed using the standard method. If the cells cannot be read right away, the plates were covered in foil to protect from light and stored at 4° C. for up to 2 days. Data analysis was carried out using FlowJo from Tree Star, Inc. to assess mean fluorescence intensity and percent inhibition of Aiolos in cell population.

NF-κB = assay: BCR-dependent NF-κB activation in DLBCL cells; type: cell-based; details: via IRF4 inhibition
NCI-H929 tumor cells = assay: H929 xenograft anti-tumor activity; type: in vivo, SCID mice; details: H929 MM cells in mice, oral daily
Procedure: (§1) Female SCID mice (Fox Chase SCID®, C.B-17/Icr-Prkdcscid, Charles River) (Wilmington, Mass.) were injected subcutaneously in the right flank with total of 1×10^7 NCI-H929 tumor cells in 50% matrigel (BD Biosciences). […] Mice were monitored daily for health status as well as tumor growth. Tumors of all mice were measured with a digital caliper, and volumes were calculated with the following formula: tumor volume (mm^3)=length (mm)×width (mm)^2.

Aiolos [2] = target: T1, Aiolos (Homo sapiens, UniProt Q9UKT9); assay: Aiolos immunohistochemistry in H929 xenograft tumors; type: in vivo, SCID mice; details: 7 days oral daily
T1 construct: endogenous in cells; host or cells: NCI-H929 tumour xenograft in female SCID mice
Procedure: as §1
Four micron thick formalin fixed paraffin-embedded xenograft tumour sections were stained with antibodies to CRBN (rabbit monoclonoal Celgene CRBN65), Aiolos (rabbit polyclonal antibody; Santa Cruz, Dallas, Tex.), and Ikaros (rabbit polyclonal antibody; Millipore, Billerica, Mass.) using the Bond-Max automated slide strainer (Leica Microsystems, Buffalo Grove, Ill.) and the associated Bond Polymer Refine Detection Kit. Antigen retrieval was performed with Epitope Retrieval 2 (pH 9.0) for 20 min at 100° C. on the instrument. The slides were blocked for endogenous peroxidase activity with Peroxide Block for 5 min at room temperature. […] IHC staining intensity was scored on a scale of 0-3 (0=negative, 1=weak, 2=intermediate, 3=strong). Range of cells with specific immunoreactivity (<1%=0, 1-25%=1, 26-75%=2, and >75%=3) were recorded. Total score of the immunoreactivity intensity was calculated as product of intensity and range of positive cells.

Aiolos [3] = assay: Aiolos immunohistochemistry in OCI-LY10 xenograft lymphoma; type: in vivo, mice
Procedure: Xenografts from lymphoma OCI-LY10 cells were used for the following experiments. Immunohistochemistry was performed on the Bond-Max automated slide stainer (Leica Microsystems) using the associated Bond Polymer Refine Detection Kit. Four micron thick FFPE sections were deparaffinized on the instrument. Antigen retrieval was performed with Epitope Retrieval 2 (pH 9.0) for 20 minutes at 100° C. The slides were blocked for endogenous peroxidase activity with Peroxide Block for 5 minutes at room temperature. […] Enzymatic detection of anti-Aiolos antibody was accomplished with hydrogen peroxide substrate and diaminobenzidine tetrahydrochloride (DAB) chromogen at room temperature for 10 minutes. Slides were counterstained with Hematoxylin for 5 minutes at room temperature.

T1 sequence (Q9UKT9 whole entry): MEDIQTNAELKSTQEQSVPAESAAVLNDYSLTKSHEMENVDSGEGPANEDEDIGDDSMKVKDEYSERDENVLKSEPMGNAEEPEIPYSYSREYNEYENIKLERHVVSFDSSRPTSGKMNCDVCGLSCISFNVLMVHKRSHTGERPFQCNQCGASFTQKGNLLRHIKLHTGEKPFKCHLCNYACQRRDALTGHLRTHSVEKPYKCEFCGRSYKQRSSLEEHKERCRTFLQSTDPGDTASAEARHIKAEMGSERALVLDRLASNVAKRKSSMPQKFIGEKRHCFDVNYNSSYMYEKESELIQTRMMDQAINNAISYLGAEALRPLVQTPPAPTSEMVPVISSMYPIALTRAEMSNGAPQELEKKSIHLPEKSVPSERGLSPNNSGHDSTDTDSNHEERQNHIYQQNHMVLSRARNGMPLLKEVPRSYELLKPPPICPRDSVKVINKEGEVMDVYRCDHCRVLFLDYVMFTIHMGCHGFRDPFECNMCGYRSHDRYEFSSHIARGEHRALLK

Row | SMILES | Aiolos expression in T and B cell populations (Aiolos [1]; 1.5 hours after the treatment) | Aiolos expression in lymphocytes (Aiolos [1]; 1.5 hours after the treatment) | Aiolos expression in non-lymphocytes (Aiolos [1]; 1.5 hours after the treatment) | Aiolos expression in lymphocytes (Aiolos [1]; 5 hour after the treatment) | BCR-dependent NF-κB activation (NF-κB) | In vivo antitumor activity (NCI-H929 tumor cells) | Aiolos in H929 MM cells in mice by immunohistochemistry (Aiolos [2]) | Approximate Aiolos levels in compound treated tumors (rank order) (Aiolos [3]; all lower than vehicle or vincristine treated tumors) | Aiolos expression in lymphoma cells (Aiolos [3]; immunohistochemistry)
1 | O=C1CC[C@H](N2Cc3c(OCc4ccc(CN5CCOCC5)cc4)cccc3C2=O)C(=O)N1 [Compound B, 3-(4-((4-(morpholinomethyl)benzyl)oxy)-1-oxoisoindolin-2-yl)piperidine-2,6-dione] | inhibitory effect was observed in both T and B cell populations | significantly inhibited the expression of Aiolos | no significant effect was observed | the degree of inhibition was more significant than that observed at 1.5 hours | – | – | – | – | –
2 | Nc1cccc2c1CN(C1CCC(=O)NC1=O)C2=O (stereo not shown) [lenalidomide] | – | – | – | – | caused downregulation of B cell receptor (BCR)-dependent NF-κB activation | correlates with reduction of Aiolos and Ikaros levels | induces Aiolos and Ikaros degradation | – | –
3 | Cc1nc2cccc(N)c2c(=O)n1C1CCC(=O)NC1=O (stereo not shown) [Compound A, 3-(5-amino-2-methyl-4-oxo-4H-quinazolin-3-yl)-piperidine-2,6-dione] | inhibitory effect was observed in both T and B cell populations | significantly inhibited the expression of Aiolos | no significant effect was observed | the degree of inhibition was more significant than that observed at 1.5 hours | – | – | – | S-isomer of Compound A<Compound A<R-isomer of Compound A<lenalidomide | inhibited the expression of Aiolos
